# Assay results as given in US20200031778A1, “NOVEL 5-SUBSTITUTED IMIDAZOLYLMETHYL DERIVATIVES” (Bayer CropScience Aktiengesellschaft, priority 2016, published 2020).
# Assay: Log P by HPLC on reversed phase columns (EEC directive 79/831 Annex V.A8; methods [a], [b], [c])
# Format: physicochemical
# Procedure, shortened: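 Log P derived from retention times, interpolated linearly between bracketing straight-chain alkan-2-ones (3–16 carbons) of known Log P. Eluents ran acetonitrile 10% to 95% against water with 0.1% formic acid ([a], acidic), 0.001 M ammonium acetate ([b], neutral) or 0.1% phosphoric acid ([c], acidic); UV read-out.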
row,SMILES,LogP
1,CC(C)(C)CC(O)(Cn1cncc1C#N)c1ccccc1Cl (stereo not drawn) [I-309],3.17^[a]
2,CC(C)(C)C(O)(Cn1cncc1C#N)c1ccc(Cl)cc1Cl (stereo not drawn) [I-310],3.37^[a]
3,CC(O)(Cn1cncc1C#N)c1ccc(Oc2ccc(C(F)(F)F)cc2)nc1C(F)(F)F (stereo not drawn) [I-312],3.25^[a]
4,CCCC(O)(Cn1cncc1C#N)c1ccccc1C(F)(F)F (stereo not drawn) [I-313],2.66^[a]
5,CCC(C)C(O)(Cn1cncc1C#N)c1ccc(Cl)cc1Cl (stereo not drawn) [I-314],3.29^[a]
6,CC(C)(C)c1ccc(C#CC(O)(Cn2cncc2C#N)C2(Cl)CC2)cc1 (stereo not drawn) [I-317],3.73^[a]
7,C[Si](C)(C)C#CC(O)(Cn1cncc1C#N)C1(Cl)CC1 (stereo not drawn) [I-318],2.76^[a]
8,N#Cc1cncn1CC(O)(C#Cc1cc(F)cc(F)c1)C1(Cl)CC1 (stereo not drawn) [I-319],2.59^[a]
9,CCc1ccc(C#CC(O)(Cn2cncc2C#N)C2(Cl)CC2)cc1 (stereo not drawn) [I-320],3.11^[a]
10,COc1ccc(C#CC(O)(Cn2cncc2C#N)C2(Cl)CC2)cc1 (stereo not drawn) [I-321],2.51^[a]
11,N#Cc1cncn1CC(O)(C#Cc1ccc(Cl)cc1)C1(Cl)CC1 (stereo not drawn) [I-322],2.96^[a]
12,N#Cc1cncn1CC(O)(C#Cc1ccccc1Cl)C1(Cl)CC1 (stereo not drawn) [I-324],2.73^[a]
13,CCC(O)(Cn1cncc1C#N)c1ccccc1C(F)(F)F (stereo not drawn) [I-329],2.27^[a]
14,N#Cc1cncn1CC(O)(c1ccccc1C(F)(F)F)C1CC1 (stereo not drawn) [I-330],2.35^[a]
15,Cc1ccc(C(O)(Cn2cncc2C#N)C2(Cl)CC2)c(Cl)c1 (stereo not drawn) [I-331],2.58^[a]
16,N#Cc1cncn1CC(O)(c1ccc(C2CC2)cc1Cl)C1(Cl)CC1 (stereo not drawn) [I-332],2.88^[a]
17,N#Cc1cncn1CC(O)(c1ccc(Br)cc1Cl)C1(Cl)CC1 (stereo not drawn) [I-333],2.73^[a]
18,CC(C)(C)CC(O)(Cn1cncc1C#N)c1ccc(Br)cc1Cl (stereo not drawn) [I-334],2.83^[a]
19,CCc1cc(Cl)ccc1C(O)(Cn1cncc1C#N)C1(Cl)CC1 (stereo not drawn) [I-335],3.00^[a]
20,N#Cc1cncn1CC(O)(c1cc(Cl)ccc1Cl)C1(Cl)CC1 (stereo not drawn) [I-336],2.56^[a]

row,SMILES,LogP
1,N#Cc1cncn1CC(O)(c1cccc(Cl)c1Cl)C1(Cl)CC1 (stereo not drawn) [I-337],2.52^[a]
2,N#Cc1cncn1CC(O)(c1cc(F)ccc1Cl)C1(Cl)CC1 (stereo not drawn) [I-338],2.30^[a]
3,N#Cc1cncn1CC(O)(c1c(F)cccc1Cl)C1(Cl)CC1 (stereo not drawn) [I-339],2.32^[a]
4,Cc1ccc(C(C)(O)Cn2cncc2C#N)cc1 (stereo not drawn) [I-340],1.75^[a]
5,CC(O)(Cn1cncc1C#N)c1cnc(Oc2ccc(C(F)F)cc2)cc1C(F)(F)F (stereo not drawn) [I-341],2.80^[a]
6,CC(C)(C)C(O)(Cn1cncc1C#N)c1ccc(Cl)cc1F (stereo not drawn) [I-342],3.00^[a]
7,CC(C)CC(O)(Cn1cncc1C#N)c1ccccc1C(F)(F)F (stereo not drawn) [I-343],2.88^[a]
8,N#Cc1cncn1CC(O)(c1ccccc1C(F)(F)F)C1(Cl)CC1 (stereo not drawn) [I-344],2.35^[a]
9,CC(C)C(O)(Cn1cncc1C#N)c1ccccc1C(F)(F)F (stereo not drawn) [I-345],2.46^[a]
10,CCCCCC(O)(Cn1cncc1C#N)c1ccccc1C(F)(F)F (stereo not drawn) [I-346],3.23^[a]
11,CC(C)(C)C(O)(Cn1cncc1C#N)c1ccc(F)cc1 (stereo not drawn) [I-347],2.51^[a]
12,N#Cc1cncn1CC(O)(c1ccccc1C(F)(F)F)C1(F)CC1 (stereo not drawn) [I-348],2.28^[a]
13,N#Cc1cncn1CC(O)(c1ccc(F)cc1Cl)C1(F)CC1 (stereo not drawn) [I-349],2.22^[a]
14,N#Cc1cncn1CC(O)(C#Cc1ccc(C(F)(F)F)cc1)C1(Cl)CC1 (stereo not drawn) [I-350],3.09^[a]
15,N#Cc1cncn1CC(O)(c1ccc(F)cc1)C1(F)CC1 (stereo not drawn) [I-351],2.04^[a]
16,N#Cc1cncn1CC(O)(c1ccc(F)cc1F)C1(F)CC1 (stereo not drawn) [I-352],2.08^[a]
17,CCc1ccc(C(O)(Cn2cncc2C#N)C2(Cl)CC2)c(Cl)c1 (stereo not drawn) [I-353],2.86^[a]
18,CC(C)(C)c1ccc(C(O)(Cn2cncc2C#N)C2(Cl)CC2)c(Cl)c1 (stereo not drawn) [I-354],3.39^[a]
19,N#Cc1cncn1CC(O)(c1ccc(F)cc1F)C1(Cl)CC1 (stereo not drawn) [I-355],2.28^[a]
